Results: PubChem BioAssay (NCI)
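Where inhibition never reached the appropriate level, the endpoint shown equals the highest concentration tested. Otherwise, values were interpolated linearly from a five-concentration, 48-hour dose response in 96-well plates. GI50 is the concentration that inhibits growth by half. TGI marks complete inhibition of growth.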

Tests used:
Assay in all cases: NCI anticancer screen, dose series, 48 h
[1] = system: SNB-19 CNS
[2] = system: CAKI-1 renal
[3] = system: T-47D breast
[4] = system: MCF7 breast
[5] = system: SF-268 CNS
[6] = system: RPMI-8226 leukemia
[7] = system: UACC-62 melanoma
[8] = system: SK-MEL-28 melanoma
[9] = system: SK-MEL-2 melanoma
[10] = system: NCI-H460 lung
[11] = system: OVCAR-4 ovarian
[12] = system: A549 NSCLC
[13] = system: NCI-H522 lung

Structure (SMILES)	TGI [1] [µM]	TGI [2] [µM]	TGI [3] [µM]	TGI [4] [µM]	TGI [5] [µM]	TGI [6] [µM]	TGI [7] [µM]	TGI [8] [µM]	TGI [9] [µM]	TGI [10] [µM]	TGI [11] [µM]	TGI [12] [µM]	TGI [13] [µM]	GI50 [3] [µM]	GI50 [2] [µM]	GI50 [6] [µM]	GI50 [7] [µM]	GI50 [13] [µM]	GI50 [8] [µM]	GI50 [9] [µM]
COc1ccc(C2NC(N)=C(C#N)C3=C2C(C)CCC3)cc1OC (configuration not stated)	> 100	> 100	> 100	> 100	> 100	> 100	> 100	> 100	> 100	–	–	–	–	–	–	–	–	–	–	–
NS(=O)(=O)c1ccc(NCc2nc3ccccc3[nH]2)cc1	> 100	> 100	> 100	> 100	> 100	–	> 100	–	> 100	> 100	> 100	> 100	> 100	–	–	–	–	–	–	–
Cc1cc(O)c(C(C)C)cc1C(=S)Nc1ccc(Cl)cc1	–	27.9	29.2	22.9	19.7	33	22.3	28.6	27.8	27.4	20.2	–	17.8	–	–	–	–	–	–	–
Nc1ncc2c(n1)-c1ccccc1OC2	> 100	–	–	> 100	> 100	> 100	> 100	> 100	> 100	> 100	> 31.6	> 100	> 100	–	–	–	–	–	–	–
CC(C)=CCC[C@@H](C)C1=C(O)C(Nc2ccccc2)=C(C)C(=O)C1=O	> 100	56.8	59.7	> 86	> 100	> 73.3	54.5	> 100	> 89.9	> 64.5	> 100	45.5	–	–	–	–	–	–	–	–
CC(C)=C=CP(=O)(O)c1ccccc1	> 100	> 100	> 100	> 100	> 100	–	> 100	> 100	> 100	> 100	> 100	> 100	> 100	–	–	–	–	–	–	–
COc1cc2nc(-c3cccs3)nc(N3C(c4cc(OC)c(OC)c(OC)c4)=NNC(=O)c4ccccc43)c2cc1OC	46.3	> 100	> 100	> 100	> 100	–	35.8	81.6	> 100	> 100	42.1	> 100	> 100	–	–	–	–	–	–	–
N#Cc1c(N2CCCC2)nsc1Nc1ccccc1	> 100	–	> 100	–	> 100	> 100	–	> 100	> 100	> 100	> 100	> 100	–	–	–	–	–	–	–	–
Clc1ncnc2c1nc(C#Cc1ccccc1)n2C1CCCCO1 (configuration not stated)	6.22	3.91	4.55	3.22	6.22	–	5.84	4.78	6.49	8.09	3.75	4.04	3.65	–	–	–	–	–	–	–
COc1cc(-c2nc(SC)nc3c2CCc2ccccc2-3)cc(OC)c1OC	> 100	–	> 100	> 100	> 100	68.8	> 100	> 100	> 100	–	> 100	> 100	–	–	–	–	–	–	–	–
c1ccc(OCc2nnc(CCCCCCCCc3nnc(COc4ccccc4)o3)o2)cc1	> 100	> 100	–	> 100	> 100	–	–	> 100	> 100	> 100	> 100	> 100	> 100	–	–	–	–	–	–	–
ClC1=C(Cl)C2OC3C=CCC3OC2C(Cl)=C1Cl (configuration not stated)	–	> 100	> 100	> 100	> 100	66.4	–	> 100	48.1	> 100	> 100	–	> 100	–	–	–	–	–	–	–
Cc1ccsc1/C=N/Nc1cc(C)c2ccccc2n1	32.8	41.1	> 100	30.4	42.2	8.9	26.6	30.2	51.2	–	72.2	52.3	–	–	–	–	–	–	–	–
Cc1ccc(S(=O)(=O)N/N=C\c2c3ccccc3[n+](C)c3ccccc23)cc1	75.1	> 100	–	–	> 100	> 100	74.6	> 100	> 100	50.3	> 100	> 100	> 100	–	–	–	–	–	–	–
O=S(=O)(O)c1cc(N=[N+]([O-])c2ccc(N=Nc3ccccc3)cc2S(=O)(=O)O)ccc1/C=C/c1ccc(N=[N+]([O-])c2ccc(N=Nc3ccccc3)cc2S(=O)(=O)O)cc1S(=O)(=O)O	> 100	–	–	> 100	> 100	> 100	> 100	> 100	> 100	> 100	> 100	> 100	> 100	–	–	–	–	–	–	–
O=C(Cn1c(=O)oc2ccc(C(=O)c3cccc(Cl)c3)cc21)c1ccccc1	–	> 100	> 100	> 100	> 100	> 100	> 100	> 100	> 100	> 100	> 100	> 100	> 100	–	–	–	–	–	–	–
Cc1cc(S(=O)(=O)Nc2n[nH]c(Nc3ccccc3)n2)c(SSc2cc(Cl)c(C)cc2S(=O)(=O)Nc2n[nH]c(Nc3ccccc3)n2)cc1Cl	> 100	> 100	> 100	> 10	> 100	> 100	> 100	> 100	–	> 100	> 100	> 100	–	–	–	–	–	–	–	–
Cc1cc(OCc2nnc3n2N=C(c2cc(F)c(Cl)cc2Cl)/C(=C/c2ccc(-c4ccc(Cl)cc4)o2)S3)ccc1Cl	> 50	> 50	> 50	> 50	> 50	30.2	> 50	> 50	> 50	> 50	–	> 50	> 50	–	–	–	–	–	–	–
O=c1onc(Nc2ccccc2)n1-c1ccccc1	> 100	> 100	–	> 100	–	–	> 100	> 100	> 100	> 100	> 100	> 100	–	–	–	–	–	–	–	–
COc1cccc(N(CN2C(=O)CCC2OC)C(C)=O)c1 (configuration not stated)	> 100	> 100	> 100	> 100	> 100	> 100	> 100	> 100	> 100	> 100	> 100	> 100	–	–	–	–	–	–	–	–

Structure (SMILES)	TGI [1] [µM]	TGI [2] [µM]	TGI [3] [µM]	TGI [4] [µM]	TGI [5] [µM]	TGI [6] [µM]	TGI [7] [µM]	TGI [8] [µM]	TGI [9] [µM]	TGI [10] [µM]	TGI [11] [µM]	TGI [12] [µM]	TGI [13] [µM]	GI50 [3] [µM]	GI50 [2] [µM]	GI50 [6] [µM]	GI50 [7] [µM]	GI50 [13] [µM]	GI50 [8] [µM]	GI50 [9] [µM]
O=NNc1c[nH]c(=O)[nH]c1=O	> 100	> 100	> 100	> 100	–	> 100	> 100	> 100	> 100	–	> 100	> 100	> 100	–	–	–	–	–	–	–
CCOP(=O)(Cc1nc(C#N)c(N)o1)OCC	> 100	> 100	–	> 100	> 100	> 100	> 100	> 100	> 100	> 100	> 100	–	> 100	–	–	–	–	–	–	–
OC(CCl)CN1CC[N+]2(CC1)CC[N+]1(CCN(CC(O)CCl)CC1)CC2 (configuration not stated)	> 50	> 50	–	–	> 50	> 50	–	> 50	> 50	> 50	> 50	> 50	> 50	–	–	–	–	–	–	–
CCCCCCCCCCOc1ccc(N=Nc2nnc(-c3ccc(OCCCCC)cc3)s2)cc1	> 100	> 100	> 100	> 100	> 100	> 100	> 100	> 100	–	> 100	> 100	> 100	> 100	–	–	–	–	–	–	–
O=[N+]([O-])c1ccc(Nc2cccc3c2[nH]c2c(-c4ccccc4)nccc23)c([N+](=O)[O-])c1	> 100	–	–	> 100	> 100	> 100	> 100	> 100	> 100	> 100	> 100	> 100	> 100	–	–	–	–	–	–	–
CCN(CC)C(=O)c1cc([N+](=O)[O-])c(=O)n2c1[nH]c1ccccc12	> 100	> 100	> 100	–	> 100	> 100	> 100	> 100	–	> 100	> 100	> 100	> 100	–	–	–	–	–	–	–
COc1ccc(C2=NN(c3nsc4ccccc34)C(=O)CC2)cc1	> 100	–	–	–	> 100	> 100	> 100	> 100	> 100	> 100	> 100	> 100	–	–	–	–	–	–	–	–
CC(C)(C)CC(C)(C)NCC(O)COc1ccc(C(C)(C)c2ccc(OCC(O)CNC(C)(C)CC(C)(C)C)cc2)cc1 (configuration not stated)	3.01	3.13	3.48	–	3.06	–	3.31	1.85	3.28	0.782	3.23	3.02	3.02	1.66	–	–	–	–	–	–
NNS(=O)(=O)c1ccc(/C=C2\NC(=O)NC2=O)cc1	> 100	> 100	> 100	> 100	> 100	> 100	> 100	> 100	> 100	–	> 100	> 100	–	–	–	–	–	–	–	–
CC1CN=C(c2ccc(CN3CCC(CCCC4CCN(Cc5ccc(C6=NCC(C)N6)cc5)CC4)CC3)cc2)N1 (configuration not stated)	71.5	> 100	> 100	50.3	> 100	–	> 100	> 100	52.3	36.8	57.1	> 100	70.3	–	–	–	–	–	–	–
N=C(N)c1ccc(-c2ccc(-c3ccc(Cl)cc3Cl)s2)nc1	–	3.1	4.96	–	–	5.42	3.65	3.28	7.32	–	–	–	4.88	2.21	1.71	2.32	1.9	2.19	1.76	2.79
O=C1c2cc3ncsc3cc2C(=O)c2c(O)ccc(O)c21	> 100	> 100	–	> 100	> 100	> 100	> 100	> 100	> 100	> 100	> 100	> 100	> 100	–	–	–	–	–	–	–
O=C(CN1CCN(c2ccccn2)CC1)N1CCCn2c1nc1ccccc1c2=O	> 100	> 100	> 100	> 100	> 100	> 100	> 100	–	> 100	> 100	> 100	> 100	> 100	–	–	–	–	–	–	–
C=C(Cl)CN1c2ccccc2C=Cc2ccccc21	> 100	52.9	65.2	50.4	> 100	–	44.2	–	40.6	16.2	97.9	> 100	82	–	–	–	–	–	–	–
CCc1n[nH]c(=O)[nH]1	> 100	> 100	> 100	> 100	> 100	–	> 100	–	> 100	> 100	–	> 100	> 100	–	–	–	–	–	–	–
CSc1nc(-c2ccccc2)nc(=[N+]2CCOCC2)s1	> 100	–	–	–	> 100	–	> 100	> 100	> 100	> 100	> 100	> 100	84.1	–	–	–	–	–	–	–
Cc1ccc2c(c1)Nc1ccccc1P2(=O)O	> 100	> 100	> 100	–	> 100	–	> 100	> 100	> 100	> 100	> 100	> 100	> 100	–	–	–	–	–	–	–
CC(C)N1[C@@H]2CCCC[C@H]2N(C(C)C)[P+]1=O	–	> 100	> 100	> 100	> 100	> 100	> 100	–	–	> 100	–	> 100	> 100	–	–	–	–	–	–	–
Cc1cc(OCC(O)CO)ccc1Cl (configuration not stated)	> 100	> 100	–	–	> 100	> 100	> 100	> 100	> 100	> 100	> 100	> 100	> 100	–	–	–	–	–	–	–
